US12403114B2, “Cannabinoid acid ester compositions and uses thereof” (EPM (IP), INC., priority 2019, dated 2025)

What was measured:
[1] = system: partial meniscectomy/ACL transection rat model of surgical induced osteoarthritis and pain induced incapacitance; assay: Weight bearing in rat meniscectomy model versus hyaluronate and corticosteroid, Example 6; type: in vivo
Description: Rats were allowed to acclimatize for 1 week, followed by assessment of their weight bearing preference using an incapacitance meter. Unilateral medical meniscectomy and anterior cruciate ligament […] (MMX/ACLT) surgery was performed on the right knee of a subject rat. Weight bearing preference was tested before and after surgery. After 2 weeks, treatments with both intra-articular (1) and. intra-peritoneal (6) administrations of EPM301 began in the EPM301 group. In the hyaluronate (HA) and corticosteroid (CS) groups, a single intra-articular injection was performed 2 weeks after model induction. Weight bearing preference was then assessed 4 and 7 days after the start of therapy.
Wistar Rats (HsdHan female rats 225-249 grams) were acquired from Envigo. The rats were evaluated using an incapacitance tester. They were tested pre-operation, one-week post-operation, two weeks post-operation, prior to injection, 4 and 7 days post injections.
EPM-301 was dissolved in a solution mixture of 1:1:18 EtOH:cremophor:seline to a final concentration of 3.5 mg/mL. Hyaluronic acid (Arthrease, 1% sodium hyaluronate) and Dexamethasone (kem Pharma, Venus, 72, Pol. Ind. Colom II, 08228 Terrassa, Barcelona) were acquired.
Intra-articular (i.a.) injection was carried out with 100 uL and intra-peritoneal (i.p.) injections were carried out with 150 uL. All were injected i.a. in the first day. EPM-301 was injected via i.p. administration on the first day, and for 5 additional days everyday via i.p. administration.
Student's t-test was performed at the last follow-up time to determine effect of the therapy as primary endpoint. The level of significance was 0.05 alpha. ANOVA was used to compare all time points, a post-hob analysis with the Scheffe all comparisons method was performed. Calculations were performed using the Analyze-it Excel add-on function.
The percentage of weight bearing was calculated as the amount of weight born (in grams) on the right hind limb divided by the amount of weight born on the left hind limb. This ratio was expressed as percentage weight bearing. Prior to operation the Rt/Lt weight bearing in both groups was similar. There were 4 animals in the EPM-301 treated group and 8 animals in each of the HA and CS treated groups, with a total of 20 tested subjects.

[2] = system: diet-induced obesity (DIO); assay: Diet-induced obese (DIO) mice on high-fat diet, metabolic profile; type: in vivo, C57Bl/6 mice
From the text: The experimental protocol used was approved by the Institutional Animal Care and Use Committee of the Hebrew University, which is an AAALAC International accredited institute. Male 6-week-old C57Bl/6 mice were obtained from Harlan Laboratories. Mice were maintained under a 12-h light/dark cycle and fed ad libitum. To generate diet-induced obesity, the mice were fed either a high-fat diet (HFD) (60% of calories from fat, 20% from protein, and 20% from carbohydrates; Research Diet, D12492) or a standard laboratory diet (STD, 14% fat, 24% protein, 62% carbohydrates; NIH-31 rodent diet) for 14 weeks.
HFD-fed obese mice received vehicle (1% Tween80, 4% DMSO, 95% Saline) or CBDA-ME daily for 28 days by intraperitoneal (ip) injections of 40 mg/kg. Age-matched control mice on STD received vehicle daily. Body weight and food intake were monitored daily. Total body fat and lean masses were determined by EchoMRI-100H™ (Echo Medical Systems LLC, Houston, Tex., USA). 24 h urine was collected one week before euthanasia using mouse metabolic cages (CCS2000 Chiller System, Hatteras Instruments, NC, USA). At weeks 20, mice were euthanized by a cervical dislocation under deep anesthesia, the kidneys, liver, fat pads, and muscles were removed and weighed, and samples were either snap-frozen or fixed in buffered 4% formalin. Trunk blood was collected for determining the biochemical parameters.
The experimental protocol used Metabolic profile of the mice was assessed by using the Promethion High-Definition Behavioral Phenotyping System (Sable Instruments, Inc., Las Vegas, Nev., USA). Data acquisition and instrument control were performed using MetaScreen software version 2.2.18.0, and the obtained raw data were processed using ExpeData version 1.8.4 using an analysis script detailing all aspects of data transformation. Mice with free access to food and water were subjected to a standard 12 h light/12 h dark cycle, which consisted of a 48 h acclimation period followed by 24 h of sampling. Respiratory gases were measured by using the GA-3 gas analyzer (Sable Systems, Inc., Las Vegas, Nev., USA) using a pull-mode, negative-pressure system. Air flow was measured and controlled by FR-8 (Sable Systems, Inc., Las Vegas, Nev., USA), with a set flow rate of 2000 mL/min. Water vapor was continuously measured and its dilution effect on O2 and CO2 was mathematically compensated. Effective mass was calculated by [body mass]^0.75. Fat oxidation (FO) and carbohydrate oxidation (CHO) were calculated as FO=1.69×VO2−1.69×VCO2 and CHO=4.57×VCO2−3.23×VO2 and expressed as g/d/kg^eff.Mass.
Locomotor activity was quantified by the number of disruptions of infrared XYZ beam arrays with a beam spacing of 0.25 cm in the Promethion High-Definition Behavioral Phenotyping System (Sable Instruments, Inc., Las Vegas, Nev., USA).
Mice that fasted overnight were injected with glucose (1.5 g/kg, ip), followed by a tail blood collection at 0, 15, 30, 45, 60, 90, and 120 minutes. Blood glucose levels were determined using the Elite glucometer (Bayer, Pittsburgh, Pa.).
Serum and urine levels of creatinine as well as serum levels of cholesterol, triglycerides (TG), high-density lipoprotein (HDL), low-density lipoprotein (LDL), alanine aminotransferase (ALT), aspartate aminotransferase (AST), and alkaline phosphatase (ALP) were determined using the Cobas C-111 chemistry analyzer (Roche, Switzerland) […]. Creatinine clearance was calculated using urine and serum creatinine levels (CCr mL/h=Urine creatinine mg/dL×Urine volume/Serum creatinine mg/dL×24 hrs). Fasting blood glucose was measured using the Elite glucometer (Bayer, Pittsburgh, Pa.).
Liver tissues were extracted as described previously (Tam, J., et al., Cell Metab, 2012. 16(2): p. 167-79) and its triglyceride content was determined using the EnzyChrom™ Triglyceride Assay Kit (BioAssay Systems). […]

[3] = HFD mice, 40 mg/kg/d ip for 28 days
[4] = HFD mice, 40 mg/kg/d ip for 28 days (FIG. 30)
[5] = obesity related hepatocellular injury (FIG. 28)

C=C(C)[C@@H]1CCC(C)=CC1c1c(O)cc(CCCCC)c(C(=O)OC)c1O (stereo partly drawn) [EPM-301, cannabidiolic acid methyl ester]
Rt limb weight bearing ([1]; following injections, EPM-301 i.a. once plus i.p. 6 days, HA and CS single i.a. injection): 99.1%
weight bearing ([1]; immediately prior to injection, two weeks following model induction (baseline before treatment)): 56.6%
HDL-cholesterol [2, 3]: without changing
LDL-cholesterol [2, 3]: reduced
overweight (body weight) ([2]; HFD mice, 40 mg/kg/d ip for 28 days (FIG. 23A)): significantly reduced
adiposity (fat mass) ([2]; HFD mice, 40 mg/kg/d ip for 28 days (FIG. 23B)): significantly reduced
lean body mass ([2]; HFD mice, 40 mg/kg/d ip for 28 days (FIG. 23C)): without affecting
leptin levels ([2]; HFD mice, 40 mg/kg/d ip for 28 days (FIG. 23D)): reduction
total ambulatory activity ([2]; HFD mice, 40 mg/kg/d ip for 28 days (FIG. 25B)): without changing
HFD-induced hypertriglyceridemia (serum triglycerides) ([2]; HFD mice, 40 mg/kg/d ip for 28 days (FIG. 26A)): significantly reduced
HFD-induced hypercholesterinemia (serum cholesterol) ([2]; HFD mice, 40 mg/kg/d ip for 28 days (FIG. 26B)): significantly reduced
ratio between HDL to LDL ([2]; HFD mice, 40 mg/kg/d ip for 28 days (FIG. 26C)): Increased
fasting glucose levels ([2]; HFD mice, 40 mg/kg/d ip for 28 days (FIG. 27A)): no change
HFD-induced hepatic steatosis: elevated hepatic triglyceride levels ([2]; HFD mice, 40 mg/kg/d ip for 28 days (FIG. 29A)): completely attenuated
HFD-induced hepatic steatosis: increased fat vacuoles in the liver ([2]; HFD mice, 40 mg/kg/d ip for 28 days (FIG. 29B)): completely attenuated
HFD-induced kidney hypofiltration (creatinine clearance) [2, 4]: completely normalized
reduction in urine excretion-to-water consumption ratio [2, 4]: completely normalized
glucose intolerance (ip glucose tolerance test) ([2]; glucose 1.5 g/kg ip after overnight fast (FIG. 27B-27D)): significant reduction
utilization of fat (fat oxidation) ([2]; indirect calorimetry, similar to lean mice on STD (FIG. 24A)): downregulate
carbohydrate oxidation ([2]; indirect calorimetry, similar to lean mice on STD (FIG. 24B)): upregulate
serum levels of ALP [2, 5]: reduction
serum levels of ALT [2, 5]: reduction
serum levels of AST [2, 5]: reduction
ability to run on a wheel ([2]; similar to STD-fed animals (FIG. 25A)): increased ability
